Reference: patent US11780845B2 (Relay Therapeutics, Inc., priority 2019, dated 2023)

Tests used:
[1] = target: T1, FGFR2 (Homo sapiens (Human), UniProt P21802); test: FGFR2 Biochemical Caliper Assay
Method: Compounds of the present invention were also tested in a FGFR2 Biochemical Caliper Assay. Compounds were prepared in 10 mM DMSO solution and serially diluted into 11 concentrations by 3-fold dilution. […] 5 uL of ATP solution (100 uM) was added to start the reaction and the plate was incubated for 90 minutes, then 70 uL of stopping buffer (0.5M EDTA) was added to terminate the reaction. Each well was analyzed using EZ reader.

[2] = tested on: SNU16 cells; test: SNU16 Cancer Cell Line Proliferation Assay; format: cell-based; conditions: SNU-16 cells
Method: Compounds of the present invention were also tested in a SNU16 Cancer Cell Line Proliferation Assay, Test compounds were prepared in a 10 mM DMSO stock solution. 45 uL of stock solution was transferred to a 384 well plate, and a 3-fold 11-point dolution was performed. SNU16 cells in a 384 well cell culture plate were seeded and incubated at 37 degrees for 24 hours. 40 nL of each concentration of compound was transferred from the compound plate to a corresponding well in the cell culture plate by Echo550 liquid handler. The plates were incubated for 96 hours, then equilibrated to room temperature for 15 minutes. 20 uL of CellTiter Glo reagent is added into each well, then the plate was shaken gently for 30 minutes at room temperature. Chemiluminescence was then read on an EnVision reader.

[3] = target: T1, FGFR2; test: Biochemical FGFR2 Caliper assay
[4] = tested on: SNU-16; test: Cell SNU-16 assay; format: cell-based
[5] = Homo sapiens, SNU-16, SNU-16 cells

T1 sequence (P21802 22-821): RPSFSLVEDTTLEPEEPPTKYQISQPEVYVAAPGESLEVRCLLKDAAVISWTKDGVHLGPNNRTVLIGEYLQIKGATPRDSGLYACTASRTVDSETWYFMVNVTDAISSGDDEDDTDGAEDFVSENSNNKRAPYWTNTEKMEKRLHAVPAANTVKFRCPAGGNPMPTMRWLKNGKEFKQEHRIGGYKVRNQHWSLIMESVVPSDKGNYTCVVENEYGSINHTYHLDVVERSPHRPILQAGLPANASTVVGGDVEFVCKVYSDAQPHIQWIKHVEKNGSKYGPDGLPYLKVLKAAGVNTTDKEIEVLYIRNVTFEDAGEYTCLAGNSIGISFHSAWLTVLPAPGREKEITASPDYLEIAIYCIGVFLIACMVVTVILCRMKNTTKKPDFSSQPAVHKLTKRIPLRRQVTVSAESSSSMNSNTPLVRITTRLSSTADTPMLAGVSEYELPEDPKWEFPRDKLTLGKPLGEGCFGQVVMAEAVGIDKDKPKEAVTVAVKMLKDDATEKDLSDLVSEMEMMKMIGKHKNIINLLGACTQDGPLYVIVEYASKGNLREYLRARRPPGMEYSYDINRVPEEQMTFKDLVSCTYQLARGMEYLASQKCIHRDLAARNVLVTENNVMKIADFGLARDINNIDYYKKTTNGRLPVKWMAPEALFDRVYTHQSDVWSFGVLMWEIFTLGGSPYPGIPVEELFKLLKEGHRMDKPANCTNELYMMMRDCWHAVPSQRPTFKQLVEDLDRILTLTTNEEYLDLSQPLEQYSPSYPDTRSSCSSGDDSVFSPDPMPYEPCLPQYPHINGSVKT

SMILES	IC50 [3] [nM]	IC50 [4, 5] [nM]	other results
C=C(C)C(=O)Nc1ccc(-c2c(C3=CC[C@@H](C(=O)N4CCCC4)CC3)c3c(N)ncnc3n2C)cc1 (single isomer, unassigned) [Example 397]	–	–	IC50 [1]: 1000 to 100000 nM; IC50 ([2]; Homo sapiens): 250 to 1000 nM
C=C(C)C(=O)Nc1ccc(-c2c(C3=CC[C@H](C(=O)N4CCCC4)CC3)c3c(N)ncnc3n2C)cc1 (single isomer, unassigned) [Example 398]	–	–	IC50 [1]: < 100 nM; IC50 ([2]; Homo sapiens): ≤ 100 nM
C=C(C)C(=O)Nc1ccc(-c2c(C3=CC[C@@H](Oc4cccc(C)n4)CC3)c3c(N)ncnc3n2C)cc1 (single isomer, unassigned) [Example 451]	–	–	IC50 [1]: 250 to 1000 nM; IC50 ([2]; Homo sapiens): ≤ 100 nM
C=C(C)C(=O)Nc1ccc(-c2c(C3=CC[C@H](Oc4cccc(C)n4)CC3)c3c(N)ncnc3n2C)cc1 (single isomer, unassigned) [Example 452]	–	–	IC50 [1]: 1000 to 100000 nM; IC50 ([2]; Homo sapiens): 250 to 1000 nM
C=C(C)C(=O)Nc1ccc(-c2c(-c3ccc(C(=O)N4CC[C@@H]5C[C@@H]54)cc3)c3c(N)ncnc3n2C)c(F)c1 (single isomer, unassigned) [Example 464]	–	–	IC50 [1]: < 100 nM; IC50 ([2]; Homo sapiens): ≤ 100 nM
C=C(C)C(=O)Nc1ccc(-c2c(-c3ccc(C(=O)N4CC[C@H]5C[C@H]54)cc3)c3c(N)ncnc3n2C)c(F)c1 (single isomer, unassigned) [Example 466]	–	–	IC50 [1]: < 100 nM; IC50 ([2]; Homo sapiens): ≤ 100 nM
CC#CC(=O)Nc1ccc(-c2c(-c3ccc(Oc4cccc(C)n4)c(OC)c3)c3c(N)ncnc3n2C)cc1 [Example 18]	–	–	IC50 ([2]; Homo sapiens): ≤ 100 nM
C=C(C)C(=O)Nc1ccc(-c2c(-c3ccc(Oc4nccc(C)n4)c(F)c3)c3c(N)ncnc3n2C)cc1 [Example 343]	–	–	IC50 ([2]; Homo sapiens): ≤ 100 nM
C=C(C)C(=O)Nc1ccc(-c2c(-c3ccc(Oc4nccc(C)n4)c(F)c3)c3c(N)ncnc3n2C)c(C)c1 [Example 495]	–	–	IC50 [2]: ≤ 100 nM
C=C(C)C(=O)Nc1ccc(-c2c(-c3ccc(Oc4nccc(C)n4)c(F)c3)c3c(N)ncnc3n2C)c(C(F)F)c1 [Example 496]	–	–	IC50 [2]: ≤ 100 nM
C=C(C)C(=O)Nc1ccc(-c2c(-c3ccc(Oc4nccc(C)n4)c(F)c3)c3c(N)ncnc3n2C)c(C(F)F)c1 [Example 527]	–	–	IC50 [2]: ≤ 100 nM
C=C(C)C(=O)Nc1ccc(-c2c(-c3ccc(Oc4nccc(C)n4)c(F)c3)c3c(N)ncnc3n2C)c(C)c1 [Example 531]	–	–	IC50 [2]: ≤ 100 nM
C=C(C)C(=O)Nc1ccc(-c2c(-c3ccc(Oc4nccc(C)n4)c(F)c3)c3c(N)ncnc3n2C)c(CO)c1 [Example 535]	–	–	IC50 [2]: ≤ 100 nM
C=CC(=O)N1CCC(c2c(-c3ccc(N4CCN(C(C)C)CC4)cc3)c3c(N)ncnc3n2C)C1 (stereo not drawn) [Example 770]	–	–	IC50 ([2]; Homo sapiens): 1000 to 100000 nM
C=C(C)C(=O)Nc1ccc(-c2c(-c3ccc(OCc4ccccc4)c(F)c3)c3c(N)ncnc3n2C)cc1 [Example 1435]	1000 to 100000	1000 to 100000	–
C=C(C)C(=O)Nc1ccc(-c2c(-c3ccc(OCc4ccccn4)c(F)c3)c3c(N)ncnc3n2C)cc1 [Example 1436]	1000 to 100000	1000 to 100000	–
C#Cc1cc2c(cn1)-c1c(-c3ccc(Oc4nccc(C)n4)c(F)c3)c3c(N)ncnc3n1[C@@H](C)CO2 [Example 1442]	1000 to 100000	250 to 1000	–
C#Cc1cc(C)c(-c2nn3c(c2-c2ccc(Oc4nccc(C)n4)c(F)c2)COCC3)cn1 [Example 1462]	1000 to 100000	1000 to 100000	–
C#Cc1cc(OC)c(-c2c(C3=CC[C@@H](C(=O)N4CCC[C@H]4C#N)CC3)c3c(C)ncnc3n2C)c(C)n1 [Example 1475]	1000 to 100000	–	IC50 ([4]; SNU-16 cells): 1000 to 100000 nM
C#Cc1cc(OC)c(-c2c(C3=CC[C@@H](C(=O)N4CCC[C@H]4C#N)CC3)c3c(C)ncnc3n2C)c(C)n1 [Example 1476]	1000 to 100000	–	IC50 ([4]; SNU-16 cells): 250 to 1000 nM
C=C(C)C(=O)Nc1ccc(-c2c(C3=CC[C@H](C(=O)N4CCCC4)CC3)c3c(N)ncnc3n2C)c(OC)c1 [Example 1480]	1000 to 100000	250 to 1000	–
C=C(C)C(=O)Nc1ccc(-c2c(C3=CC[C@H](C(=O)N4CCC[C@H]4C)CC3)c3c(N)ncnc3n2C)c(C)c1 [Example 1481]	250 to 1000	100 to 250	–
C#Cc1ncc(-c2c(-c3ccc(Oc4nccc(C)n4)cn3)c3c(C)ncnc3n2C)c(C)c1F [Example 1488]	250 to 1000	250 to 1000	–
C#Cc1ncc(-c2c(-c3ccc(Oc4nccc(C)n4)cn3)c3c(N)ncnc3n2C)c(OC)c1F [Example 1490]	1000 to 100000	1000 to 100000	–

Second part, led by results:

IC50 [3] [nM]	IC50 [4, 5] [nM]	SMILES	other results
< 100	≤ 100	C#Cc1cc(OC)c(-c2c(-c3ccc(Oc4nccc(C)n4)c(F)c3)c3c(N)ncnc3n2C)cn1 [Example 1433]	–
< 100	≤ 100	C#Cc1nc2cc(-c3c(-c4ccc(Oc5nccc(C)n5)c(F)c4)c4c(N)ncnc4n3C)c(C)cc2n1C [Example 1434]	–
250 to 1000	1000 to 100000	C=C(C)C(=O)Nc1ccc(-c2c(-c3ccc(O)c(F)c3)c3c(N)ncnc3n2C)cc1 [Example 1437]	–
< 100	≤ 100	C#Cc1nc(C)c(-c2c(-c3ccc(Oc4nccc(C)n4)c(F)c3)c3c(N)ncnc3n2C)c(C)n1 [Example 1438]	–
< 100	–	C#Cc1cc(C)c(-c2c(-c3ccc(Oc4nccc(C)n4)c(F)c3)c3c(N)ncnc3n2C)cn1 [Example 1439]	IC50 ([4]; SNU-16 cells): ≤ 100 nM
< 100	≤ 100	C#Cc1cc2c(cn1)-c1c(-c3ccc(Oc4nccc(C)n4)c(F)c3)c3c(N)ncnc3n1CCO2 [Example 1440]	–
250 to 1000	100 to 250	C#Cc1cc2c(cn1)-c1c(-c3ccc(Oc4nccc(C)n4)c(F)c3)c3c(N)ncnc3n1[C@H](C)CO2 [Example 1441]	–
100 to 250	≤ 100	C#Cc1ccc2c(n1)CCCn1c-2c(-c2ccc(Oc3nccc(C)n3)c(F)c2)c2c(N)ncnc21 [Example 1443]	–
< 100	≤ 100	C#Cc1cc2c(cn1)-c1c(-c3ccc(Oc4nccc(C)n4)c(F)c3)c3c(C)ncnc3n1CCC2 [Example 1445]	–
< 100	≤ 100	C#Cc1cc(OCCO)c(-c2[nH]c3ncnc(N)c3c2-c2ccc(Oc3nccc(C)n3)c(F)c2)cn1 [Example 1447]	–
< 100	≤ 100	C#Cc1cc(OC)c(-c2c(-c3ncc(Oc4nccc(C)n4)cc3F)c3c(N)ncnc3n2C)cn1 [Example 1452]	–
< 100	≤ 100	C#Cc1cc(OC)c(-c2c(-c3ncc(Oc4nccc(C)n4)cc3F)c3c(C)ncnc3n2C)cn1 [Example 1454]	–
< 100	≤ 100	C#Cc1cc2c(cn1)-c1c(-c3ccc(Oc4nccc(C)n4)c(F)c3)c3c(N)ncnc3n1C[C@H](C)O2 [Example 1455]	–
< 100	≤ 100	C#Cc1cc2c(cn1)-c1c(-c3ccc(Oc4nccc(C)n4)c(F)c3)c3c(N)ncnc3n1C[C@@H](C)O2 [Example 1456]	–
100 to 250	≤ 100	C#Cc1cc(OC)c(-c2c(-c3ccc(C(=O)NCC4(F)CCC4)c(OC)c3)c3c(C)ncnc3n2C)cn1 [Example 1457]	–
< 100	≤ 100	C#Cc1cc(N(C)C)c(-c2c(-c3ccc(Oc4nccc(C)n4)c(F)c3)c3c(N)ncnc3n2C)cn1 [Example 1458]	–
250 to 1000	100 to 250	C#Cc1ccc2c(cc(-c3c(-c4ccc(Oc5nccc(C)n5)c(F)c4)c4c(N)ncnc4n3C)n2C)n1 [Example 1461]	–
250 to 1000	≤ 100	C#Cc1cc(OC)c(-c2c(C3=CC[C@@H](C(=O)N4CCC[C@H]4C#N)CC3)c3c(C)ncnc3n2C)cn1 [Example 1467]	–
< 100	≤ 100	C#Cc1cc(OC)c(-c2c(C3=CC[C@H](C(=O)N4CCC[C@H]4C#N)CC3)c3c(C)ncnc3n2C)cn1 [Example 1468]	–
< 100	≤ 100	C#Cc1cc(OC)c(-c2c(C3=CC[C@H](C(=O)N4CCC[C@H]4C#N)CC3)c3c(C)ncnc3n2C)c(C)n1 [Example 1473]	–
< 100	≤ 100	C#Cc1cc2c(cn1)-c1c(-c3ccc(Oc4nccc(C)n4)c(F)c3)c3c(N)ncnc3n1CCC2 [Example 1477]	–
250 to 1000	100 to 250	C#Cc1cc(CCCO)c(-c2[nH]c3ncnc(N)c3c2-c2ccc(Oc3nccc(C)n3)c(F)c2)cn1 [Example 1478]	–
250 to 1000	≤ 100	C#Cc1cc(C)c(-c2c(-c3ccc(Oc4nccc(C)n4)c(F)c3)c3c(CO)ncnc3n2C)cn1 [Example 1479]	–
< 100	≤ 100	C=C(C)C(=O)Nc1cc(C)c(-c2c(C3=CC[C@H](C(=O)N4CCCC4)CC3)c3c(N)ncnc3n2C)c(F)c1 [Example 1482]	–
< 100	≤ 100	C=C(C)C(=O)Nc1cc(C)c(-c2c(C3=CC[C@@H](C(=O)N4CCCC4)CC3)c3c(N)ncnc3n2C)c(F)c1 [Example 1483]	–
< 100	≤ 100	C#Cc1cc(OC)c(-c2c(-c3ccc(Oc4nccc(C)n4)cn3)c3c(N)ncnc3n2C)cn1 [Example 1491]	–
< 100	≤ 100	C#Cc1cc(C)c(-c2c(-c3ncc(Oc4nccc(C)n4)cc3F)c3c(N)ncnc3n2C)cn1 [Example 1492]	–
< 100	≤ 100	C#Cc1ccc2c(n1)OCCn1c-2c(-c2ccc(Oc3nccc(C)n3)c(F)c2)c2c(N)ncnc21 [Example 1495]	–
